The source of these data is ChEMBL document CHEMBL1201862, “PubChem BioAssay data set” (2004).

Holding throughout (assay): NCI-60 cell line screen, 48 h
In assay [1] the test system is HT-29.
Assay [2] deals with 786-0.
Assay [3] deals with SNB-75.
For assay [4], the system named is UACC-62.
Assay [5] relates to SK-MEL-5.
Assay [6] concerns M14.
Assay [7] relates to SF-268.
In assay [8] the test system is PC-3.
Assay [9] concerns DU-145.
For assay [10], the system named is SNB-19.
For assay [11], the system named is UO-31.
For assay [12], the system named is SF-539.
The test system of assay [13] is OVCAR-8.
Assay [14] deals with EKVX.
Assay [15] concerns MDA-N.
The subject of assay [16] is A549.
The subject of assay [17] is Hs-578T.
Assay [18] deals with HOP-62.
The subject of assay [19] is OVCAR-3.
Assay [20] relates to SK-OV-3.

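Step 1: Grow cells in 96-well plates. Step 2: Expose to compound for 48 hours at 5 concentrations. Step 3: Interpolate endpoints linearly; if unreached, use highest concentration. Abbreviation: GI50, concentration required for 50% inhibition of growth.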 The source made the active and inactive calls. Cut-off read from the data, not from the text of the source: active = GI50 up to about 1.1 µM and inactive = higher.

For the molecule `Cc1nc(Nc2nc3ccccc3[nH]2)nc(Cl)c1CCCl`, the GI50 in [1] was > 100 µM (inactive); in assay [2], > 100 µM (inactive); in assay [3], 89.3 µM (inactive); in [4], > 100 µM (inactive); in assay [5], > 100 µM (inactive); in assay [6], > 100 µM (inactive). Further, the GI50 in assay [7] is 95.7 µM (inactive); in [8] it was > 100 µM (inactive); in assay [9], > 100 µM (inactive); in assay [10], > 100 µM (inactive); in assay [11], > 100 µM (inactive); in assay [12] it was > 100 µM (inactive). For the same molecule, the GI50 in assay [13] is > 100 µM (inactive); in assay [14], > 100 µM (inactive); in [15], > 100 µM (inactive); in assay [16] it was > 100 µM (inactive); in assay [17], 83.8 µM (inactive).
As to `CC(C)(C)OC(=O)N1CCc2[nH][nH]c(=O)c2C1`, the GI50 in [1], in [18], in assay [2], in assay [4], in assay [19] and in assay [6] was > 100 µM (inactive) each time. Further, the GI50 in assay [7], in assay [8], in assay [9], in assay [20], in assay [10] and in assay [11] was > 100 µM (inactive) each time. In addition, the GI50 in assay [12], in assay [13], in assay [14], in [15], in [16] and in assay [17] was > 100 µM (inactive) each time.
Take `O=C1CC(NC(=O)C(F)(F)F)c2c1csc2Br` (stereo not drawn): the GI50 is > 100 µM (inactive) in [1]; > 100 µM (inactive) in [18]; 26.5 µM (inactive) in assay [2]; > 100 µM (inactive) in [4]; 64.9 µM (inactive) in assay [5]; 2.45 µM (inactive) in [19]. The GI50 in [6] is 88.3 µM (inactive); in [7], 0.678 µM (active); in [8] it was > 100 µM (inactive); in assay [9], 2.11 µM (inactive); in assay [20], > 100 µM (inactive); in assay [10], > 100 µM (inactive). Also, the GI50 in [11] is 45.5 µM (inactive); in [12], 74.1 µM (inactive); in [13], > 100 µM (inactive); in assay [14], 14.8 µM (inactive); in assay [15], 33.5 µM (inactive); in [16] it was > 100 µM (inactive). In addition, in [17], the GI50 is > 100 µM (inactive).
With `S=c1[nH]c2c(Cl)c(Cl)c(Cl)c(Cl)c2[nH]1`, the GI50 in assay [1] is 24 µM (inactive); in assay [18], 25.1 µM (inactive); in assay [2], 26.2 µM (inactive); in assay [4], 15.2 µM (inactive); in [5], 17.6 µM (inactive); in assay [19] it was 26.7 µM (inactive). Besides, the GI50 in assay [6] was 21.4 µM (inactive); in [7], 12.1 µM (inactive); in assay [8] it was 22.2 µM (inactive); in assay [9] it was 36.1 µM (inactive); in [20], 20.1 µM (inactive); in [10], 27.9 µM (inactive). In addition, the GI50 is 16 µM (inactive) in assay [11]; 12.1 µM (inactive) in assay [12]; 23.2 µM (inactive) in assay [13]; 11.8 µM (inactive) in [14]; 17.3 µM (inactive) in assay [15]; 25.2 µM (inactive) in assay [16]. Also, the GI50 in assay [17] was 18.5 µM (inactive).
With `CCOC(=O)/C(C#N)=C1\c2c([nH]c(=S)[nH]c2=O)Oc2ccc3ccccc3c21`, the GI50 is 12.4 µM (inactive) in assay [1]; 42.2 µM (inactive) in assay [18]; 53.8 µM (inactive) in assay [2]; 23.3 µM (inactive) in assay [3]; 24.4 µM (inactive) in assay [4]; 14 µM (inactive) in assay [5]. Also, the GI50 in assay [19] is 23.7 µM (inactive); in assay [6] it was 43.8 µM (inactive); in [7], 24.3 µM (inactive); in assay [8], 34 µM (inactive); in assay [9], 78.9 µM (inactive); in assay [20], 44.9 µM (inactive). For the same molecule, the GI50 in assay [10] was 0.0887 µM (active); in assay [11] it was 20 µM (inactive); in assay [13], 54.7 µM (inactive); in assay [14], 22.6 µM (inactive); in assay [15], 51.2 µM (inactive); in [16], 1.67 µM (inactive). Further, the GI50 in assay [17] is 76.6 µM (inactive).
With `CCCC[C@H]1CCN2C[C@@H](O)[C@@H](O)[C@H]2[C@@H]1O`, the GI50 in assay [1], in assay [2], in assay [3], in [4], in [5] and in assay [19] was > 100 µM (inactive) each time. In addition, the GI50 in assay [6], in [7], in assay [8], in assay [9], in assay [20] and in assay [10] was > 100 µM (inactive) each time. In addition, the GI50 in assay [11], in assay [12], in [13], in assay [14], in assay [15] and in assay [16] was > 100 µM (inactive) throughout. For the same molecule, in [17], the GI50 was > 100 µM (inactive).
`CC(C)=CCC/C(C)=C\CC/C(C)=C/CO`: the GI50 in assay [1] was 19.7 µM (inactive); in [18], 19.6 µM (inactive); in assay [2] it was 17.4 µM (inactive); in [3] it was 31.9 µM (inactive); in assay [5], 26.4 µM (inactive); in assay [19], 16.8 µM (inactive). The GI50 is 16.5 µM (inactive) in assay [6]; 37.2 µM (inactive) in [7]; 41.4 µM (inactive) in [8]; 27.1 µM (inactive) in assay [9]; 18.5 µM (inactive) in [10]; 22.5 µM (inactive) in [11]. In addition, the GI50 in [12] was 21 µM (inactive); in [13] it was 21.6 µM (inactive); in assay [14], 30.6 µM (inactive); in [15], 65.6 µM (inactive); in assay [16], > 100 µM (inactive); in assay [17], 28.8 µM (inactive).
As to `O=C1/C(=C/c2cccnc2)SC(=S)N1Cc1ccco1`, the GI50 in [1] is 4.01 µM (inactive); in assay [18], 5.77 µM (inactive); in assay [2] it was 3.29 µM (inactive); in assay [4], 8.97 µM (inactive); in assay [5], 13.4 µM (inactive); in assay [19] it was 3.31 µM (inactive). In addition, the GI50 in assay [6] is 5.6 µM (inactive); in [7], 5.94 µM (inactive); in assay [8], 3.87 µM (inactive); in [9], 2.19 µM (inactive); in assay [20], 19.1 µM (inactive); in [10], 32 µM (inactive). Besides, the GI50 in assay [11] was 2.84 µM (inactive); in assay [12], 2.33 µM (inactive); in assay [13], 4.7 µM (inactive); in assay [14], 49.5 µM (inactive); in assay [15], 2.33 µM (inactive); in assay [16], 31 µM (inactive). Besides, the GI50 in assay [17] is 8.39 µM (inactive).
As for `CC1(C)N=C(N)N=C(N)N1c1cccc(OCCOc2ccc([N+](=O)[O-])cc2)c1`, the GI50 was 8.24 µM (inactive) in assay [1]; > 100 µM (inactive) in [18]; 4.99 µM (inactive) in [2]; 69.5 µM (inactive) in assay [5]; 41.6 µM (inactive) in [19]; 34.8 µM (inactive) in assay [6]. Also, the GI50 in assay [7] was 5.04 µM (inactive); in [8], 0.822 µM (active); in [9], 20.1 µM (inactive); in assay [20], > 100 µM (inactive); in assay [10], 37.8 µM (inactive); in assay [12] it was 15.2 µM (inactive). The GI50 is 74.6 µM (inactive) in [13]; > 100 µM (inactive) in assay [14]; 5.26 µM (inactive) in assay [15]; 4.48 µM (inactive) in assay [16]; > 100 µM (inactive) in assay [17].
With `CSC1=NN=C(SC)NN1`, the GI50 is 0.173 µM (active) in assay [1]; 0.201 µM (active) in [18]; 0.182 µM (active) in assay [2]; 0.148 µM (active) in [4]; 0.182 µM (active) in assay [5]; 0.185 µM (active) in assay [19]. For the same molecule, the GI50 was 0.184 µM (active) in [6]; 0.189 µM (active) in [7]; 0.166 µM (active) in assay [8]; 0.202 µM (active) in assay [9]; 0.186 µM (active) in assay [20]; 0.191 µM (active) in [10]. Moreover, the GI50 was 0.188 µM (active) in assay [11]; 0.205 µM (active) in [12]; 0.285 µM (active) in [13]; 0.186 µM (active) in [14]; 0.18 µM (active) in [15]; 0.204 µM (active) in assay [16]. Further, in [17], the GI50 was 0.161 µM (active).
With `COC(=O)c1cc(NC(=O)Cc2c[nH]c3ccccc23)cn1C`, the GI50 in assay [1] was 65.9 µM (inactive); in assay [18] it was 88.1 µM (inactive); in assay [2] it was > 100 µM (inactive); in assay [4] it was 8.69 µM (inactive); in assay [5] it was 70.3 µM (inactive); in [19] it was > 100 µM (inactive). Besides, the GI50 in assay [6] was > 100 µM (inactive); in [7], 88.5 µM (inactive); in assay [8], 44.6 µM (inactive); in assay [9] it was > 100 µM (inactive); in assay [20] it was > 100 µM (inactive); in assay [10], 70 µM (inactive). Further, the GI50 was 23.6 µM (inactive) in assay [11]; > 100 µM (inactive) in assay [12]; 66.5 µM (inactive) in assay [13]; > 100 µM (inactive) in assay [14]; > 100 µM (inactive) in assay [15]; 70.5 µM (inactive) in [16]. The GI50 in [17] was 33.7 µM (inactive).
